Assay results: patent US20050197350A1, “Novel quinoline, tetrahydroquinazoline, and pyrimidine derivatives and methods of treatment related to the use thereof” (TAISHO PHARMACEUTICAL CO., LTD., priority 2003, published 2005)

Tested on: MCH receptors
Assay: MCH receptor activity class (method not given)
[1] = MCH receptor, class by percent of control at 10^-7 M or IC50
[2] = activity class 1-3: percent of control at 10^-7 M or IC50
[3] = class by percent of control at 10^−7 M or IC50
[4] = class by percent of control at 10^-7 M or IC50
[5] = class 1-3 by percent of control at 10^-7 M or IC50
[6] = activity class per percent of control at 10^-7 M or IC50
[7] = MCH receptor activity class 1-3 (percent of control at 10^-7 M or IC50)

CCC(C(=O)N[C@H]1CC[C@@H](Nc2cc(N(C)C)c3ccccc3n2)CC1)c1ccccc1 (relative stereo) [compound 66]
class [1]: 3 (Class 3 The value of percent of control at 10^−7 M was more than 60% or the value of IC50 was more than 200 nM.)

CN(C)c1ccnc(N[C@H]2CC[C@@H](NCCOc3ccc(Br)cc3)CC2)n1 [compound 1518]
class [2]: 3 (Class 3 The value of percent of control at 10^−7 M was more than 60% or the value of IC50 was more than 200 nM.)

CN(C)c1nc(N[C@H]2CC[C@@H](NC(=S)Nc3cc(Cl)ccc3Cl)CC2)nc2c1CCCC2 [compound 1936]
class [1]: 3 (Class 3 The value of percent of control at 10^−7 M was more than 60% or the value of IC50 was more than 200 nM.)

Cc1nc(N[C@H]2CC[C@@H](NCc3cccc(OC(F)(F)F)c3)CC2)nc(N(C)C)c1C [compound 2865]
class [3]: 3 (Class 3 The value of percent of control at 10^−7 M was more than 60% or the value of IC50 was more than 200 nM.)

Cc1cnc(N[C@H]2CC[C@@H](NC(=O)C[S+]([O-])c3cccc(Br)c3)CC2)nc1N(C)C (relative stereo) [compound 2882, 2-[(3-bromophenyl)sulfinyl]-N-(cis-4-{[4-(dimethylamino)-5-methylpyrimidin-2-yl]amino}cyclohexyl)acetamide]
class [3]: 1 (Class 1: The value of percent of control at 10^−7 M was less than 40% or the value of IC50 was less than 50 nM.)

CN(C)c1ccnc(N[C@H]2CC[C@@H](NC(=O)Cc3ccccc3I)CC2)n1 [compound 820]
class [4]: 3 (Class 3 The value of percent of control at 10^−7 M was more than 60% or the value of IC50 was more than 200 nM.)

CN(C)c1cc(N[C@H]2CC[C@@H](NC(=O)CCc3ccccc3)CC2)nc2ccccc12 [compound 127]
class [1]: 3 (Class 3 The value of percent of control at 10^−7 M was more than 60% or the value of IC50 was more than 200 nM.)

COc1cc(CN[C@H]2CC[C@@H](Nc3nccc(N(C)C)n3)CC2)cc(OC)c1OC [compound 1219, N4,N4-dimethyl-N2-{cis-4-[(3,4,5-trimethoxybenzyl)amino]cyclohexcyl}pyrimidine-2,4-diamine]
class [4]: 3 (Class 3 The value of percent of control at 10^−7 M was more than 60% or the value of IC50 was more than 200 nM.)

Cc1ccc(C(=O)NC[C@H]2CC[C@@H](Nc3nccc(N(C)C)n3)CC2)c(F)c1F [compound 405]
class [4]: 3 (Class 3 The value of percent of control at 10^−7 M was more than 60% or the value of IC50 was more than 200 nM.)

CN(C)c1ccnc(N[C@H]2CC[C@@H](CNC(=O)c3cc(C(F)(F)F)cc(C(F)(F)F)c3)CC2)n1 [compound 423, N-[(cis-4-{[4-(dimethylamino)pyrimidin-2-yl]amino}cyclohexyl)methyl]-3,5-bis(trifluoromethyl)benzamide]
class [5]: 2 (Class 2: The value of percent of control at 10^−7 M was from 40% to 60% or the value of IC′50 was from 50 nM to 200 nM.)

CCSc1ncccc1C(=O)NC[C@H]1CC[C@@H](Nc2nccc(N(C)C)n2)CC1 [compound 381]
class [4]: 3 (Class 3 The value of percent of control at 10^−7 M was more than 60% or the value of IC50 was more than 200 nM.)

CN(C)c1nc(N[C@H]2CC[C@@H](NC(=O)NC3CCN(C(=O)OCc4ccccc4)CC3)CC2)nc2c1CCCC2 [compound 1921]
class [1]: 3 (Class 3 The value of percent of control at 10^−7 M was more than 60% or the value of IC50 was more than 200 nM.)

CN(C)c1cc(N[C@H]2CC[C@@H](NC(=O)Nc3ccc(C#N)cc3)CC2)nc2ccccc12 [compound 2118]
class [4]: 3 (Class 3 The value of percent of control at 10^−7 M was more than 60% or the value of IC50 was more than 200 nM.)

Cc1cc(C(=O)N[C@H]2CC[C@@H](Nc3nccc(N(C)C)n3)CC2)nn1C(C)(C)C [compound 308]
class [4]: 3 (Class 3 The value of percent of control at 10^−7 M was more than 60% or the value of IC50 was more than 200 nM.)

COc1ccc([C@H](C)NC(=O)[C@H]2CC[C@@H](Nc3nc(C)cc(N(C)C)n3)CC2)cc1 [compound 2802, cis-4-{[4-(dimethylamino)-6-methylpyrimidin-2-yl]amino}-N-[(1S)-1-(4-methoxyphenyl)ethyl]cyclohexanecarboxamide]
class [3]: 1 (Class 1: The value of percent of control at 10^−7 M was less than 40% or the value of IC50 was less than 50 nM.)

Cc1cc(N(C)C)nc(N[C@H]2CC[C@@H](NC(=O)c3ccc(C(F)(F)F)cc3)CC2)n1 [compound 2972, N-(cis-4-{[4-(dimethylamino)-6-methylpyrimidin-2-yl]amino}cyclohexyl)-4-(trifluoromethyl)benzamide]
class [3]: 2 (Class 2: The value of percent of control at 10^−7 M was from 40% to 60% or the value of IC′50 was from 50 nM to 200 nM.)

CN(C)c1nc(N[C@H]2CC[C@@H](NC(=O)c3cc(F)c(Cl)cc3Cl)CC2)nc2c1CCCC2 [compound 475]
class [5]: 3 (Class 3 The value of percent of control at 10^−7 M was more than 60% or the value of IC50 was more than 200 nM.)

COc1cccc([C@H](C)NC(=O)[C@H]2CC[C@@H](Nc3ncc(C)c(N(C)C)n3)CC2)c1 [compound 2776, cis-4-{[4-(dimethylamino)-5-methylpyrimidin-2-yl]amino}-N-[(1S)-1-(3-methoxyphenyl)ethyl]cyclohexanecarboxamide]
class [3]: 1 (Class 1: The value of percent of control at 10^−7 M was less than 40% or the value of IC50 was less than 50 nM.)

Cc1cc(C(=O)NC[C@H]2CC[C@@H](Nc3nc4c(c(N(C)C)n3)CCCC4)CC2)cc(C)c1OCc1ccccc1 [compound 1082]
class [6]: 3 (Class 3 The value of percent of control at 10^−7 M was more than 60% or the value of IC50 was more than 200 nM.)

CN(C)c1cc(N[C@H]2CC[C@@H](CNC(=O)c3ccc(C#N)cc3)CC2)nc2ccccc12 [compound 204]
class [1]: 3 (Class 3 The value of percent of control at 10^−7 M was more than 60% or the value of IC50 was more than 200 nM.)

CN(C)c1nc(N[C@H]2CC[C@@H](NC(=S)NCc3cccc(Cl)c3)CC2)nc2c1CCCC2 [compound 1772]
class [4]: 3 (Class 3 The value of percent of control at 10^−7 M was more than 60% or the value of IC50 was more than 200 nM.)

CN(C)c1nc(N[C@H]2CC[C@@H](NC(=O)C(c3ccc(Cl)cc3)c3ccc(Cl)cc3)CC2)nc2c1CCCC2 [compound 962]
class [4]: 1 (Class 1: The value of percent of control at 10^−7 M was less than 40% or the value of IC50 was less than 50 nM.)

CN(C)c1nc(N[C@H]2CC[C@@H](CNC(=O)OCC(Cl)(Cl)Cl)CC2)nc2c1CCCC2 [compound 1618]
class [2]: 3 (Class 3 The value of percent of control at 10^−7 M was more than 60% or the value of IC50 was more than 200 nM.)

CN(C)c1nc(N[C@H]2CC[C@@H](NC(=O)Nc3ccc(C(F)(F)F)cc3Cl)CC2)nc2c1CCCC2 [compound 1853]
class [4]: 3 (Class 3 The value of percent of control at 10^−7 M was more than 60% or the value of IC50 was more than 200 nM.)

COc1cccc(CNC(=S)N[C@H]2CC[C@@H](Nc3cc(N(C)C)c4ccccc4n3)CC2)c1OC [compound 2288]
class [7]: 3 (Class 3 The value of percent of control at 10^−7 M was more than 60% or the value of IC50 was more than 200 nM.)

CN(C)c1nc(N[C@H]2CC[C@@H](NC(=S)Nc3ccc(Sc4ccc([N+](=O)[O-])cc4)cc3)CC2)nc2c1CCCC2 [compound 2050]
class [1]: 3 (Class 3 The value of percent of control at 10^−7 M was more than 60% or the value of IC50 was more than 200 nM.)

CSc1ccc(NC(=S)N[C@H]2CC[C@@H](Nc3nc4c(c(N(C)C)n3)CCCC4)CC2)cc1 [compound 1948]
class [1]: 3 (Class 3 The value of percent of control at 10^−7 M was more than 60% or the value of IC50 was more than 200 nM.)

Cc1ccnc(SCC(=O)N[C@H]2CC[C@@H](Nc3nc4c(c(N(C)C)n3)CCCC4)CC2)n1 [compound 972]
class [4]: 2 (Class 2: The value of percent of control at 10^−7 M was from 40% to 60% or the value of IC′50 was from 50 nM to 200 nM.)

CCOC(=O)c1cccc(NC(=O)N[C@H]2CC[C@@H](Nc3nccc(N(C)C)n3)CC2)c1 [compound 2217]
class [4]: 3 (Class 3 The value of percent of control at 10^−7 M was more than 60% or the value of IC50 was more than 200 nM.)

CCOC(=O)[C@H](CC(C)C)NC(=O)NC[C@H]1CC[C@@H](Nc2nccc(N(C)C)n2)CC1 (relative stereo) [compound 2409]
class [7]: 3 (Class 3 The value of percent of control at 10^−7 M was more than 60% or the value of IC50 was more than 200 nM.)

COc1ccc(NC(=S)N[C@H]2CC[C@@H](Nc3nc4c(c(N(C)C)n3)CCCC4)CC2)cc1 [compound 1949]
class [1]: 3 (Class 3 The value of percent of control at 10^−7 M was more than 60% or the value of IC50 was more than 200 nM.)

CN(C)c1ccnc(N[C@H]2CC[C@@H](NC(=O)c3ccc(-c4cccc([N+](=O)[O-])c4)o3)CC2)n1 [compound 902, N-(cis-4-{[4-(dimethylamino)pyrimidin-2-yl]amino}cyclohexyl)-5-(3-nitrophenyl)-2-furamide]
class [4]: 2 (Class 2: The value of percent of control at 10^−7 M was from 40% to 60% or the value of IC′50 was from 50 nM to 200 nM.)

CN(C)c1nc(N[C@H]2CC[C@@H](NC(=O)Nc3ccc(SC(F)(F)F)cc3)CC2)nc2c1CCCC2 [compound 1879]
class [4]: 3 (Class 3 The value of percent of control at 10^−7 M was more than 60% or the value of IC50 was more than 200 nM.)

COc1cccc(CC(=O)NC[C@H]2CC[C@@H](Nc3cc(N(C)C)c4ccccc4n3)CC2)c1 [compound 194]
class [1]: 3 (Class 3 The value of percent of control at 10^−7 M was more than 60% or the value of IC50 was more than 200 nM.)

Cc1ccccc1CNC(=S)N[C@H]1CC[C@@H](Nc2nc3c(c(N(C)C)n2)CCCC3)CC1 [compound 2040]
class [1]: 3 (Class 3 The value of percent of control at 10^−7 M was more than 60% or the value of IC50 was more than 200 nM.)

CN(C)c1nc(N[C@H]2CC[C@@H](NC(=O)Cc3ccc(Oc4ccccc4)cc3)CC2)nc2c1CCCC2 [compound 1004]
class [6]: 2 (Class 2: The value of percent of control at 10^−7 M was from 40% to 60% or the value of IC′50 was from 50 nM to 200 nM.)
